Experiment: xn = mol fraction of the nth substance listed
Details: Liquid, Vibrating tube method

CCCCCCCCCC [decane] + CCO
Details | mass density [kg/m3]
323 K, 1000 kPa, x2 = 0.1011 | 707.24
323 K, 2000 kPa, x2 = 0.1011 | 708.19
323 K, 3000 kPa, x2 = 0.1011 | 709.13
323 K, 4000 kPa, x2 = 0.1011 | 710.05
323 K, 5000 kPa, x2 = 0.1011 | 710.96
323 K, 6000 kPa, x2 = 0.1011 | 711.86
323 K, 7000 kPa, x2 = 0.1011 | 712.75
323 K, 8000 kPa, x2 = 0.1011 | 713.62
323 K, 9000 kPa, x2 = 0.1011 | 714.5
323 K, 10000 kPa, x2 = 0.1011 | 715.37
323 K, 11000 kPa, x2 = 0.1011 | 716.23
323 K, 12000 kPa, x2 = 0.1011 | 717.09
323 K, 13000 kPa, x2 = 0.1011 | 717.94
323 K, 14000 kPa, x2 = 0.1011 | 718.79
323 K, 15000 kPa, x2 = 0.1011 | 719.61
323 K, 16000 kPa, x2 = 0.1011 | 720.42
323 K, 17000 kPa, x2 = 0.1011 | 721.22
323 K, 18000 kPa, x2 = 0.1011 | 722.01
323 K, 19000 kPa, x2 = 0.1011 | 722.76
323 K, 20000 kPa, x2 = 0.1011 | 723.51
323.03 K, 1000 kPa, x2 = 0.7526 | 729.67
323.03 K, 2000 kPa, x2 = 0.7526 | 730.66
323.03 K, 3000 kPa, x2 = 0.7526 | 731.64
323.03 K, 4000 kPa, x2 = 0.7526 | 732.61
323.03 K, 5000 kPa, x2 = 0.7526 | 733.56
323.03 K, 6000 kPa, x2 = 0.7526 | 734.49
323.03 K, 7000 kPa, x2 = 0.7526 | 735.43
323.03 K, 8000 kPa, x2 = 0.7526 | 736.37
323.03 K, 9000 kPa, x2 = 0.7526 | 737.3
323.03 K, 10000 kPa, x2 = 0.7526 | 738.24
323.03 K, 11000 kPa, x2 = 0.7526 | 739.17
323.03 K, 12000 kPa, x2 = 0.7526 | 740.08
323.03 K, 13000 kPa, x2 = 0.7526 | 741
323.03 K, 14000 kPa, x2 = 0.7526 | 741.9
323.03 K, 15000 kPa, x2 = 0.7526 | 742.78
323.03 K, 16000 kPa, x2 = 0.7526 | 743.66
323.03 K, 17000 kPa, x2 = 0.7526 | 744.51
323.03 K, 18000 kPa, x2 = 0.7526 | 745.35
323.03 K, 19000 kPa, x2 = 0.7526 | 746.18
323.03 K, 20000 kPa, x2 = 0.7526 | 746.98
323.06 K, 1000 kPa, x2 = 0.2507 | 709.58
323.06 K, 2000 kPa, x2 = 0.2507 | 710.54
323.06 K, 3000 kPa, x2 = 0.2507 | 711.48
323.06 K, 4000 kPa, x2 = 0.2507 | 712.41
323.06 K, 5000 kPa, x2 = 0.2507 | 713.33
323.06 K, 6000 kPa, x2 = 0.2507 | 714.23
323.06 K, 7000 kPa, x2 = 0.2507 | 715.12
323.06 K, 8000 kPa, x2 = 0.2507 | 716.01
323.06 K, 9000 kPa, x2 = 0.2507 | 716.9
323.06 K, 10000 kPa, x2 = 0.2507 | 717.78
323.06 K, 11000 kPa, x2 = 0.2507 | 718.65
323.06 K, 12000 kPa, x2 = 0.2507 | 719.53
323.06 K, 13000 kPa, x2 = 0.2507 | 720.39
323.06 K, 14000 kPa, x2 = 0.2507 | 721.24
323.06 K, 15000 kPa, x2 = 0.2507 | 722.08
323.06 K, 16000 kPa, x2 = 0.2507 | 722.91
323.06 K, 17000 kPa, x2 = 0.2507 | 723.72
323.06 K, 18000 kPa, x2 = 0.2507 | 724.51
323.06 K, 19000 kPa, x2 = 0.2507 | 725.28
323.06 K, 20000 kPa, x2 = 0.2507 | 726.04
332.86 K, 1000 kPa, x2 = 0.0937 | 699.25
332.86 K, 1000 kPa, x2 = 0.9014 | 736.03
332.86 K, 2000 kPa, x2 = 0.0937 | 700.26
332.86 K, 2000 kPa, x2 = 0.9014 | 737.11
332.86 K, 3000 kPa, x2 = 0.0937 | 701.26
332.86 K, 3000 kPa, x2 = 0.9014 | 738.18
332.86 K, 4000 kPa, x2 = 0.0937 | 702.24
332.86 K, 4000 kPa, x2 = 0.9014 | 739.22
332.86 K, 5000 kPa, x2 = 0.0937 | 703.21
332.86 K, 5000 kPa, x2 = 0.9014 | 740.19
332.86 K, 6000 kPa, x2 = 0.0937 | 704.16
332.86 K, 6000 kPa, x2 = 0.9014 | 741.29
332.86 K, 7000 kPa, x2 = 0.0937 | 705.1
332.86 K, 7000 kPa, x2 = 0.9014 | 742.31
332.86 K, 8000 kPa, x2 = 0.0937 | 706.03
332.86 K, 8000 kPa, x2 = 0.9014 | 743.33
332.86 K, 9000 kPa, x2 = 0.0937 | 706.94
332.86 K, 9000 kPa, x2 = 0.9014 | 744.36
332.86 K, 10000 kPa, x2 = 0.0937 | 707.85
332.86 K, 10000 kPa, x2 = 0.9014 | 745.34
332.86 K, 11000 kPa, x2 = 0.0937 | 708.77
332.86 K, 11000 kPa, x2 = 0.9014 | 746.35
332.86 K, 12000 kPa, x2 = 0.0937 | 709.67
332.86 K, 12000 kPa, x2 = 0.9014 | 747.33
332.86 K, 13000 kPa, x2 = 0.0937 | 710.57
332.86 K, 13000 kPa, x2 = 0.9014 | 748.31
332.86 K, 14000 kPa, x2 = 0.0937 | 711.45
332.86 K, 14000 kPa, x2 = 0.9014 | 749.26
332.86 K, 15000 kPa, x2 = 0.0937 | 712.31
332.86 K, 15000 kPa, x2 = 0.9014 | 750.21
